The record followed here is patent publication US11945826B2, “Hydroxypyridoxazepines as NRF2 activators” (GLAXOSMITHKLINE INTELLECTUAL PROPERTY DEVELOPMENT LIMITED, priority 2019, dated 2024).

Data set [1] is described as follows: Monkey PK Study. Particulars: cynomolgus monkey; for MRT / clearance: male, plasma, nominal 1 mg/kg 60-minute intravenous infusion, cassette; for MRT: read-out: Monkey Pharmacokinetics MRT; for clearance: read-out: Monkey Pharmacokinetics Total Clearance. Type of data set: in vivo. The procedure:
All studies were conducted after review by the GSK Institutional Animal Care and Use Committee and in accordance with the GSK Policy on the Care, Welfare and Treatment of Laboratory Animals. A pre-study health examination that included a physical exam and complete blood count was performed on the animals prior to use on study. A catheter was temporarily placed in a cephalic or saphenous vein for sample collection on the study day. The animals were fasted overnight prior to dosing; food provided after the 4-hour blood sample was collected. The intravenous and oral solution pharmacokinetic studies were carried out using a non-crossover design; a total of four male cynomolgus monkeys were used, two per route of administration.
The compounds used in this study were the compound of Example 1, herein, and Compound A (the compound of Example 1 of WO 2018/109646).
The dose for intravenous administration was prepared as a cassette of up to five test compounds in 20% Cavitron™ and 5% DMSO. The intravenous dose formulation was filtered through a 0.22-micron polytetrafluoroethylene (PTFE) filter prior to administration. The dose for oral solution administration was prepared as a cassette of up to five compounds in 6% Cavitron™ and 5% DMSO and was filtered through a 0.22-micron VWR PTFE filter prior to administration.
Each animal received a nominal dose of 1 mg/kg/compound (4 mL/kg dose volume) either as a 60-minute intravenous infusion or as an oral gavage. Blood samples (approximately 0.25 mL each) were collected from a cephalic or saphenous vein. Blood samples from animals that received the intravenous dose were collected prior to dosing and at target times of 15, 30, 45, 60 (before termination of the infusion), 62, 65, 75, 90, 120, 180, 240, 360, 480, 600, and 1440 minutes following the initiation of the intravenous infusion. For animals that received the oral dose, blood samples were collected prior to dosing and at target times of 5, 15, 30, 45, 60, 90, 120, 180, 240, 360, 480, 600, and 1440 minutes following oral gavage. Plasma was isolated from blood by centrifugation and a 30 μL aliquot was transferred to a non-heparinized tube, quick frozen on solid carbon dioxide and stored at approximately −80° C. until analyzed by liquid chromatography/tandem mass spectroscopy (LC/MS/MS) for test compound concentration.
Pharmacokinetic parameters for all in vivo PK studies were calculated using non-compartmental methods with Phoenix WinNonlin version 6.1.0 or 8.1.0. All parameters were calculated using actual blood sampling times and actual dosages for each animal. The extrapolated area under the curve (AUC0-inf) was determined using unweighted linear regression analysis of at least three log transformed concentrations visually assessed to be on the linear portion of the terminal elimination slope. Oral solution bioavailability was calculated in a non-crossover fashion using the mean intravenous dose and AUC0-inf values from the two intravenously dosed animals for the monkey PK study and in a crossover fashion for the rat PK study.

The target in data set [2] is T1, human PXR (Homo sapiens, UniProt O75469).
T1 construct: expression vectors containing full length human PXR; expressed in transfected cells; host or cells: HepG2 (human hepatocellular carcinoma line), transient transfection with FuGENE
T1 sequence (O75469 1-434): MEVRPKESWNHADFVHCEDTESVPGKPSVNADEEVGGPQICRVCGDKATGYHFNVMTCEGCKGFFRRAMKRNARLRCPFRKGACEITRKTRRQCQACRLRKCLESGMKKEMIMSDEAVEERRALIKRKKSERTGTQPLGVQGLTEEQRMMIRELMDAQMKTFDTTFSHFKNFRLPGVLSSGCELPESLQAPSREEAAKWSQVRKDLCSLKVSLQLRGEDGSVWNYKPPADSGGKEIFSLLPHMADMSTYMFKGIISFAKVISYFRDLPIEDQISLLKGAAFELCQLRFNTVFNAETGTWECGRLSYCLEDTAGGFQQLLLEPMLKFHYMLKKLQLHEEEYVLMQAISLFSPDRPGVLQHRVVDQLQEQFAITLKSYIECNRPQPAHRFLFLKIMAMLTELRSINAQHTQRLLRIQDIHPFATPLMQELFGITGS
Briefly: Human PXR Activation Assay. It is filed as cell-based. Particulars: for EC50: HepG2 transfected with human PXR and CYP3A4 promoter luciferase, 24 h; for Emax at 24 h: human, percent maximum induction compared to 10 μM rifampicin. The method, then:
Transactivation activity of PXR ligands was measured in a human hepatocellular carcinoma line (HepG2) batch transiently transfected using FuGENE™ with expression vectors containing full length human PXR and the human CYP3A4 promoter driving luciferase expression. Following transfection, cells are frozen until required for assay.
On day of assay, cells were recovered, counted on a CEDEX instrument then resuspended to a density of 50,000 cells/mL in phenol red-free DMEM-F12 supplemented with 10% charcoal/dextran-treated FBS. 20 μl of cell suspension was then dispensed to each well of white Nunc 384-well plates, containing […] of test compounds in DMSO. Cells were incubated for 24 h in the presence compound after which time […] of Steady-Lite™ luciferase substrate was added to each well. Luciferase activity was quantified by measurement on the Pherastar™ imager and activity was expressed as percent maximum induction as compared to induction by 10 μM rifampicin.

Data set [3] relates to Nrf2 (NQO1 activity in BEAS-2B cells). Briefly: BEAS-2B NQO1 MTT Assay. It is filed as cell-based. As to conditions: Homo sapiens, NQO1 specific activity induction. An excerpt: NAD(P)H:quinone oxidoreductase 1 (NQO1), also called DT diaphorase, is a homodimeric FAD-containing enzyme that catalyzes obligatory NAD(P)H-dependent two-electron reductions of quinones and protects cells against the toxic and neoplastic effects of free radicals and reactive oxygen species arising from one-electron reductions. The transcription of NQO1 is finely regulated by Nrf2, and thus NQO1 activity is a good marker for Nrf2 activation. On day one, frozen BEAS-2B cells (ATCC) were thawed in a water bath, counted, and re-suspended at a concentration of 250,000 cells/mL. Fifty microliters of cells were plated in 384 well black clear-bottomed plates. Plates were incubated at 37° C., 5% CO2 overnight. On day two, plates were centrifuged and 50 nL of compound or controls were added to the cells. Plates were then incubated at 37° C., 5% CO2 for 48 hours. On day four, medium was aspirated from the plate and crude cell lysates were made by adding 13 μL of 1× Cell Signalling Technologies lysis buffer with 1 Complete, Mini, EDTA-free Protease Inhibitor Tablet (Roche) for each 10 mL of lysis buffer. After lysis plates were incubated for 20 minutes at room temperature. Two microliters of lysate were removed for use in Cell Titer Glo assay (Promega) and MTT cocktail was prepared (Prochaska et. al. 1998) for measurement of NQO1 activity. Fifty microliters of MTT cocktail was added to each well, plate was centrifuged, and analyzed on an Envision plate reader (Perkin Elmer) using Absorbance 570 nm label for 30 minutes. Product formation was measured kinetically and the pEC50 of NQO1 specific activity induction was calculated by plotting the change in absorbance (Delta OD/min) versus the log of compound concentration followed by 3-parameter fitting.
EC50s<1 nM (+++++), EC50s 1 nM-10 nM (++++), EC50s 10 nM-100 nM (+++), EC50s 100 nM-1 μM (++), EC50s 1 μM-10 μM (+).

Setting [4] is: read-out: Nrf2 BEAS-2B NQO1 EC50.

Molecules are shown by their SMILES. Like-named read-outs stand apart in the source and are kept apart here.

Consider `CC[C@@H]1CN(Cc2cc([C@@H](CC(=O)O)c3ccc4c(nnn4C)c3C)ccc2C)Cc2ncccc2O1` [Compound A, reference compound], for which, in data set [1], the MRT stood at 1.6 h and the clearance came to 0.654 L/h/kg. In data set [2], this compound came in with an EC50 of 25 µM and an Emax at 24 h of 56%. Also, the EC50 in data set [3] (setting [4]) is 0.016 µM.

For `CC[C@@H]1CN(Cc2cc([C@@H](CC(=O)O)c3ccc4c(nnn4C)c3C)ccc2C)Cc2nc(O)ccc2O1` [Example 1, (R)-3-(1,4-dimethyl-1H-benzo[d][1,2,3]triazol-5-yl)-3-(3-(((R)-2-ethyl-7-hydroxy-2,3-dihydropyrido[2,3-f][1,4]oxazepin-4(5H)-yl)methyl)-4-methylphenyl)propanoic acid], in data set [1], the “fold improvement in mean residence time (MRT) versus Compound A” value is on record as around 11 fold, the “fold reduction in total clearance (CL) versus Compound A” value is recorded as around 27 fold, the MRT was determined as 18 h and the clearance is 0.0246 L/h/kg. In data set [2], the half-maximal effective concentration (EC50) was above 50 µM and the Emax at 24 h amounted to 10%. Moreover, in data set [3] (48 hours, read-out: EC50), the EC50 was 0.01 to 0.1 µM. The 50% effective concentration (EC50) in data set [3] (setting [4]) came to 0.013 µM.

The MRT is the average time that molecules of a dose stay in the body. The clearance is the rate of elimination divided by the concentration. For orientation: EC50 means the concentration giving half of the maximal effect. What is called Emax is the size of the effect at its maximum, as opposed to the concentration needed.
